Measurements as given in ChEMBL document CHEMBL3885881, “DrugMatrix”.

Species on record: Rattus norvegicus
Assay: DrugMatrix - Regimen: Daily Repeat
Type: toxicity, organism-based, Sprague-Dawley
Parameters: regimen Daily Repeat, gender Male, age 6-8 weeks
Settings: in vivo, sc, route subcutaneous, […]; for ABSOLUTE BASOPHIL / ABSOLUTE EOSINOPHIL / ABSOLUTE LYMPHOCYTE / ABSOLUTE MONOCYTE / ABSOLUTE SEGMENTED NEUTROPHIL / BASOPHIL / EOSINOPHIL / ERYTHROCYTE COUNT / HEMATOCRIT / HEMOGLOBIN / LEUKOCYTE COUNT / LYMPHOCYTE / MEAN CORPUSCULAR HEMOGLOBIN / MEAN CORPUSCULAR HEMOGLOBIN CONCENTRATION / MEAN CORPUSCULAR VOLUME / MONOCYTE / NEUTROPHIL / NUCLEATED RED BLOOD CELLS / PLATELET COUNT: tissue Blood; for ALANINE AMINOTRANSFERASE / ALBUMIN / ALKALINE PHOSPHATASE / ASPARTATE AMINOTRANSFERASE / BLOOD UREA NITROGEN / CARBON DIOXIDE / CHLORIDE / CHOLESTEROL / CREATINE PHOSPHOKINASE / CREATININE / GLUCOSE / LACTATE DEHYDROGENASE / LIPASE / PHOSPHORUS / POTASSIUM / SODIUM / TOTAL BILIRUBIN / TOTAL PROTEIN / URIC ACID: tissue Plasma
[1] = 0 mg/kg, 72 h, dose level Control, time 3 day
[2] = 0 mg/kg, 120 h, dose level Control, time 5 day
[3] = 1915 mg/kg, 72 h, dose level High, time 3 day
[4] = 1915 mg/kg, 120 h, dose level High, time 5 day

## Cc1cc(O)cc(C)c1Cl [CHLOROXYLENOL]
[1]
  ABSOLUTE BASOPHIL: 0 CELLS/uL
  ABSOLUTE EOSINOPHIL: 92.33 CELLS/uL
  ABSOLUTE LYMPHOCYTE: 12247.5 CELLS/uL
  ABSOLUTE MONOCYTE: 389.67 CELLS/uL
  ABSOLUTE SEGMENTED NEUTROPHIL: 1320.5 CELLS/uL
  BASOPHIL: 0%
  EOSINOPHIL: 0.67%
  ERYTHROCYTE COUNT: 5.45 x10E6/uL
  HEMATOCRIT: 34.85%
  HEMOGLOBIN: 12.97 G/DL
  LEUKOCYTE COUNT: 14.05 x10E3/uL
  LYMPHOCYTE: 87.33%
  MEAN CORPUSCULAR HEMOGLOBIN: 23.78 pg
  MEAN CORPUSCULAR HEMOGLOBIN CONCENTRATION: 37.22 G/DL
  MEAN CORPUSCULAR VOLUME: 63.93 fL
  MONOCYTE: 2.67%
  NEUTROPHIL: 9.33%
  NUCLEATED RED BLOOD CELLS: 0 /100WBC
  PLATELET COUNT: 1174 x10E3/uL
  ALANINE AMINOTRANSFERASE: 48.83 u/L
  ALBUMIN: 4.23 G/DL
  ALKALINE PHOSPHATASE: 351.5 u/L
  ASPARTATE AMINOTRANSFERASE: 90 u/L
  BLOOD UREA NITROGEN: 15.33 mg/dL
  CARBON DIOXIDE: 23 mmol/L
  CHLORIDE: 103.5 MEQ/L
  CHOLESTEROL: 70.5 mg/dL
  CREATINE PHOSPHOKINASE: 651.83 u/L
  CREATININE: 0.22 mg/dL
  GLUCOSE: 180.67 mg/dL
  LACTATE DEHYDROGENASE: 165 u/L
  LIPASE: 9.33 u/L
  PHOSPHORUS: 12.03 mg/dL
  POTASSIUM: 6.17 MEQ/L
  SODIUM: 142.62 MEQ/L
  TOTAL BILIRUBIN: 0.2 mg/dL
  TOTAL PROTEIN: 5.73 G/DL
  URIC ACID: 1.77 mg/dL
[2]
  ABSOLUTE BASOPHIL: 0 CELLS/uL
  ABSOLUTE EOSINOPHIL: 0 CELLS/uL
  ABSOLUTE LYMPHOCYTE: 12736.67 CELLS/uL
  ABSOLUTE MONOCYTE: 253.5 CELLS/uL
  ABSOLUTE SEGMENTED NEUTROPHIL: 1193.17 CELLS/uL
  BASOPHIL: 0%
  EOSINOPHIL: 0%
  ERYTHROCYTE COUNT: 5.72 x10E6/uL
  HEMATOCRIT: 36.05%
  HEMOGLOBIN: 13.62 G/DL
  LEUKOCYTE COUNT: 14.18 x10E3/uL
  LYMPHOCYTE: 89.33%
  MEAN CORPUSCULAR HEMOGLOBIN: 23.83 pg
  MEAN CORPUSCULAR HEMOGLOBIN CONCENTRATION: 37.8 G/DL
  MEAN CORPUSCULAR VOLUME: 63.05 fL
  MONOCYTE: 1.83%
  NEUTROPHIL: 8.83%
  NUCLEATED RED BLOOD CELLS: 0 /100WBC
  PLATELET COUNT: 1322.17 x10E3/uL
  ALANINE AMINOTRANSFERASE: 48.83 u/L
  ALBUMIN: 4.27 G/DL
  ALKALINE PHOSPHATASE: 295.17 u/L
  ASPARTATE AMINOTRANSFERASE: 75.83 u/L
  BLOOD UREA NITROGEN: 15.5 mg/dL
  CARBON DIOXIDE: 30.5 mmol/L
  CHLORIDE: 102.33 MEQ/L
  CHOLESTEROL: 76.17 mg/dL
  CREATINE PHOSPHOKINASE: 205.5 u/L
  CREATININE: 0.2 mg/dL
  GLUCOSE: 149.67 mg/dL
  LACTATE DEHYDROGENASE: 124.5 u/L
  LIPASE: 10 u/L
  PHOSPHORUS: 10.93 mg/dL
  POTASSIUM: 6.59 MEQ/L
  SODIUM: 143.1 MEQ/L
  TOTAL BILIRUBIN: 0.2 mg/dL
  TOTAL PROTEIN: 6.05 G/DL
  URIC ACID: 1.45 mg/dL
[3]
  ABSOLUTE BASOPHIL: 0 CELLS/uL
  ABSOLUTE EOSINOPHIL: 0 CELLS/uL
  ABSOLUTE LYMPHOCYTE: 13518.33 CELLS/uL
  ABSOLUTE MONOCYTE: 372.33 CELLS/uL
  ABSOLUTE SEGMENTED NEUTROPHIL: 2242.67 CELLS/uL
  BASOPHIL: 0%
  EOSINOPHIL: 0%
  ERYTHROCYTE COUNT: 5.43 x10E6/uL
  HEMATOCRIT: 33.13%
  HEMOGLOBIN: 12.03 G/DL
  LEUKOCYTE COUNT: 16.13 x10E3/uL
  LYMPHOCYTE: 84.33%
  MEAN CORPUSCULAR HEMOGLOBIN: 22.17 pg
  MEAN CORPUSCULAR HEMOGLOBIN CONCENTRATION: 36.33 G/DL
  MEAN CORPUSCULAR VOLUME: 61.07 fL
  MONOCYTE: 2.33%
  NEUTROPHIL: 13.33%
  NUCLEATED RED BLOOD CELLS: 0 /100WBC
  PLATELET COUNT: 1126.33 x10E3/uL
  ALANINE AMINOTRANSFERASE: 50.33 u/L
  ALBUMIN: 3.67 G/DL
  ALKALINE PHOSPHATASE: 250.33 u/L
  ASPARTATE AMINOTRANSFERASE: 81.67 u/L
  BLOOD UREA NITROGEN: 18 mg/dL
  CARBON DIOXIDE: 24.33 mmol/L
  CHLORIDE: 104.33 MEQ/L
  CHOLESTEROL: 76.67 mg/dL
  CREATINE PHOSPHOKINASE: 276 u/L
  CREATININE: 0.18 mg/dL
  GLUCOSE: 175 mg/dL
  LACTATE DEHYDROGENASE: 84.67 u/L
  LIPASE: 8.67 u/L
  PHOSPHORUS: 11.43 mg/dL
  POTASSIUM: 6.05 MEQ/L
  SODIUM: 145.23 MEQ/L
  TOTAL BILIRUBIN: 0.13 mg/dL
  TOTAL PROTEIN: 5.67 G/DL
  URIC ACID: 2.13 mg/dL
[4]
  ABSOLUTE BASOPHIL: 0 CELLS/uL
  ABSOLUTE EOSINOPHIL: 164.67 CELLS/uL
  ABSOLUTE LYMPHOCYTE: 16889.67 CELLS/uL
  ABSOLUTE MONOCYTE: 1259.67 CELLS/uL
  ABSOLUTE SEGMENTED NEUTROPHIL: 6552.67 CELLS/uL
  BASOPHIL: 0%
  EOSINOPHIL: 0.67%
  ERYTHROCYTE COUNT: 5.49 x10E6/uL
  HEMATOCRIT: 33.1%
  HEMOGLOBIN: 12.6 G/DL
  LEUKOCYTE COUNT: 24.87 x10E3/uL
  LYMPHOCYTE: 68%
  MEAN CORPUSCULAR HEMOGLOBIN: 23.07 pg
  MEAN CORPUSCULAR HEMOGLOBIN CONCENTRATION: 38.1 G/DL
  MEAN CORPUSCULAR VOLUME: 60.43 fL
  MONOCYTE: 5%
  NEUTROPHIL: 26.33%
  NUCLEATED RED BLOOD CELLS: 0 /100WBC
  PLATELET COUNT: 1493 x10E3/uL
  ALANINE AMINOTRANSFERASE: 55.67 u/L
  ALBUMIN: 3.17 G/DL
  ALKALINE PHOSPHATASE: 330 u/L
  ASPARTATE AMINOTRANSFERASE: 87.67 u/L
  BLOOD UREA NITROGEN: 18.33 mg/dL
  CARBON DIOXIDE: 32 mmol/L
  CHLORIDE: 103.67 MEQ/L
  CHOLESTEROL: 77 mg/dL
  CREATINE PHOSPHOKINASE: 151 u/L
  CREATININE: 0.22 mg/dL
  GLUCOSE: 164 mg/dL
  LACTATE DEHYDROGENASE: 64 u/L
  LIPASE: 8 u/L
  PHOSPHORUS: 11.27 mg/dL
  POTASSIUM: 6.34 MEQ/L
  SODIUM: 145.63 MEQ/L
  TOTAL BILIRUBIN: 0.13 mg/dL
  TOTAL PROTEIN: 5.33 G/DL
  URIC ACID: 1.83 mg/dL
